Tests used:
[1] = test system: Canine Bronchial Epithelial Cells; assay: Durability of retention of airway surface liquid; assay type: cell-based
[2] = test system: New Zealand White rabbits; assay: Acute non-GLP ocular toxicity / tolerability study; assay type: in vivo
Procedure: • An Acute Non-GLP Ocular Toxicity Study In New Zealand White Rabbits With P-1046
The purpose of this study was to evaluate the ocular tolerability and systemic exposure of P-1046, an inhibitor of the epithelial sodium channel (ENaC), when administered as a topical instillation to New Zealand white rabbits.
The test article (P-1046) were supplied as a light yellow white powder. The test articles were then prepared into dosing solutions for topical ocular application. Twenty-eight experimentally naïve male New Zealand White rabbits, approximately 4 months old at the outset of the study and weighing 2.6-3.1 kilograms at randomization were assigned to treatment groups as shown in the table below:
Animals were administered 50 μl of the test or control vehicle onto the globe of right eye and 50 μl of saline onto the globe of the left eye eight times (approximately one hour between each dose) in Groups 1 and 6 and four times (approximately two hours between each dose) in Group 7. Mortality and clinical observations were recorded daily. Body weights were recorded at randomization/selection and prior to sacrifice on Day 2. For blink rate assessment, eye blinks in the right eye only were counted for 3 minutes prior to treatment initiation and following all doses. Instances of wincing and pawing at the eyes during the 3-minute eye blink observation period were recorded as clinical observations. Food consumption was recorded daily. Eyes were scored according to Draize prior to treatment, following each dose and on Day 2 at approximately 24 hours post-dose. Blood for toxicokinetic evaluation was collected from animals in Group 2-7 at pre-dose, 30 minutes after the middle dose (4th dose in groups 3, 5, and 6; 2nd dose in groups 2, 4, and 7) and at 30, 60, 120 and 240 minutes following the final dose on Day 1. Blood samples for evaluation of serum chemistry parameters were collected prior to treatment initiation and at 120 and 240 min following the final dose. Urine samples were collected over a 4-hour period following the final dose. All animals were sacrificed following completion of study procedures on Day 2.

[3] = 10 mM x 8 doses and 30 mM x 4 doses, topical ocular, rabbit

CN(C)C(=O)[C@H](CCCCNC(=N)N)NC(=O)[C@H](CCc1ccc(CCCCNC(=N)NC(=O)c2nc(Cl)c(N)nc2N)cc1)N(C)C [Compound I, 3,5-diamino-6-chloro-N-(N-(4-(4-((S)-3-(dimethylamino)-4-((S)-1-(dimethylamino)-6-guanidino-1-oxohexan-2-ylamino)-4-oxobutyl)phenyl)butyl)carbamimidoyl)pyrazine-2-carboxamide]
Durability of Retention of Airway Surface Liquid, fluid retained ([1]; 8 hours after drug delivery, n=3): 94±5% | Durability of Retention of Airway Surface Liquid, fluid retained ([1]; 24 hours after drug delivery, n=2): 56±6% | Appearance of eyes on Day 2 ([2]; 10 mM group): appeared normal | Average blink rate [2, 3]: only slight increases at some time points, similarly to vehicle treated animals | Cumulative Draize scores (right eye) [2, 3]: only slight increases in Draize scoring which are not greater than those observed for vehicle treated animals | Post-dose conjunctival redness, severity and incidence ([2]; 10 and 30 mM): comparable to the vehicle controls | Stinging on instillation ([2]; 10 and 30 mM): do not cause stinging | Ocular tolerability ([2]; 10 and 30 mM formulations): well tolerated

Source: US10159672B2 (PARION SCIENCES, INC., priority 2011, dated 2018)
